Measurements reported in US20240317721A1, “PYRAZOLYL DERIVATIVES AS INHIBITORS OF THE KRAS MUTANT PROTEIN” (NOVARTIS AG, priority 2021, published 2024).

Molecular target: KRasG12C (M1-K169, biotinylated on the N-terminus) (Homo sapiens (Human), UniProt P01116, G12C)
Assay: Covalent competition assay: scintillation proximity assay (SPA) quantifying covalent modification of KRASG12C
Assay type: binding
Details: competition with radiolabeled covalent probe (Compound B/Compound A), 2 hours incubation, 10 nM KRasG12C
Procedure, shortened: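 Scintillation proximity readout after streptavidin bead capture (30 min) of biotinylated KRasG12C(M1-K169):GDP, 10 nM final, which was covalently labelled over 2 h by 25 nM radio-probe plus 475 nM cold probe unless blocked by compound.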

Row | IC50 [nM] | SMILES
1 | 2700 | C=CC(=O)N1CC2(CC(n3nc(N4CCC(O)CC4(C)C)c(-c4c(Cl)c(C)cc5[nH]ncc45)c3C)C2)C1 (single isomer, unassigned) [Example 30b, 1-(6-(4-(5-chloro-6-methyl-1H-indazol-4-yl)-3-(4-hydroxy-2,2-dimethylpiperidin-1-yl)-5-methyl-1H-pyrazol-1-yl)-2-azaspiro[3.3]heptan-2-yl)prop-2-en-1-one]
2 | 4000 | C=CC(=O)N1CC2(CC(n3nc(N4CCN(C5COC5)C[C@]4(C)CC)c(-c4c(Cl)c(Cl)cc5[nH]ncc45)c3C)C2)C1 (single isomer, unassigned) [Example 155a]
3 | > 5000 | C=CC(=O)N1CC2(CC(n3nc(N4CCN(C(=O)[C@@H]5CCCO5)CC45CCC5)c(-c4c(Cl)c(C)cc5[nH]ncc45)c3C)C2)C1 (single isomer, unassigned) [Example 124a]
4 | > 50000 | C=CC(=O)N1CC2(CC(n3nc(N4CCN(C(C)=O)CC4)c(-c4c(Cl)ccc5[nH]ncc45)c3C)C2)C1C (single isomer, unassigned) [Example 197a, 1-(6-(3-(4-acetylpiperazin-1-yl)-4-(5-chloro-1H-indazol-4-yl)-5-methyl-1H-pyrazol-1-yl)-1-methyl-2-azaspiro[3.3]heptan-2-yl)prop-2-en-1-one]
5 | 31 | C=CC(=O)N1CC2(CC(n3nc(N4CCC(O)(CN5CCOCC5)CC4(C)C)c(-c4c(Cl)c(Cl)cc5[nH]ncc45)c3C)C2)C1 (single isomer, unassigned) [Example 237b, 1-(6-(4-(5,6-dichloro-1H-indazol-4-yl)-3-(4-hydroxy-2,2-dimethyl-4-(morpholinomethyl)piperidin-1-yl)-5-methyl-1H-pyrazol-1-yl)-2-azaspiro[3.3]heptan-2-yl)prop-2-en-1-one]
6 | 3300 | C=CC(=O)N1CC2(CC(n3nc(N4CC[C@@H](CN5CCN(C(=O)NC)CC5)CC4(C)C)c(-c4c(Cl)c(Cl)cc5[nH]ncc45)c3C)C2)C1 (single isomer, unassigned) [Example 289a]
7 | 10 | C=CC(=O)N1CC2(CC(n3nc(N4CC[C@@H](CN5CCN(C(=O)NC)CC5)CC4(C)C)c(-c4c(Cl)c(Cl)cc5[nH]ncc45)c3C)C2)C1 (single isomer, unassigned) [Example 289b]
8 | > 5000 | C=CC(=O)N1CC2(CC(n3nc(N4CCC(O)(CN5CCOCC5)CC4(C)C)c(-c4c(Cl)c(Cl)cc5[nH]ncc45)c3C)C2)C1 (single isomer, unassigned) [Example 237a, 1-(6-(4-(5,6-dichloro-1H-indazol-4-yl)-3-(4-hydroxy-2,2-dimethyl-4-(morpholinomethyl)piperidin-1-yl)-5-methyl-1H-pyrazol-1-yl)-2-azaspiro[3.3]heptan-2-yl)prop-2-en-1-one]
9 | 186 | C=CC(=O)N1CC2(CC(n3nc(N4CCn5nccc5C4C)c(-c4c(Cl)c(C)cc5[nH]ncc45)c3C)C2)C1 (single isomer, unassigned) [Example 42b, 1-(6-(4-(5-chloro-6-methyl-1H-indazol-4-yl)-5-methyl-3-(4-methyl-6,7-dihydropyrazolo[1,5-a]pyrazin-5(4H)-yl)-1H-pyrazol-1-yl)-2-azaspiro[3.3]heptan-2-yl)prop-2-en-1-one]
10 | 50000 | C=CC(=O)N1CC2(CC(n3nc(N4CCn5nccc5C4)c(-c4c(Cl)c(C)cc5[nH]ncc45)c3C)C2)C1 (single isomer, unassigned) [Example 10a, 1-(6-(4-(5-Chloro-6-methyl-1H-indazol-4-yl)-3-(6,7-dihydropyrazolo[1,5-a]pyrazin-5(4H)-yl)-5-methyl-1H-pyrazol-1-yl)-2-azaspiro[3.3]heptan-2-yl)prop-2-en-1-one]
11 | 9000 | C=CC(=O)N1CC2(CC(n3nc(N4CCN(C(C)=O)CC4)c(-c4c(Cl)ccc5[nH]ncc45)c3C)C2)C1C (single isomer, unassigned) [Example 196b, 1-(6-(3-(4-acetylpiperazin-1-yl)-4-(5-chloro-1H-indazol-4-yl)-5-methyl-1H-pyrazol-1-yl)-1-methyl-2-azaspiro[3.3]heptan-2-yl)prop-2-en-1-one]
12 | 9030 | C=CC(=O)N1CC2(CCC(n3nc(N4CCN(C(C)=O)CC4)c(-c4c(Cl)ccc5[nH]ncc45)c3C)C2)C1 (single isomer, unassigned) [Example 53d, 1-(6-(3-(4-acetylpiperazin-1-yl)-4-(5-chloro-1H-indazol-4-yl)-5-methyl-1H-pyrazol-1-yl)-2-azaspiro[3.4]octan-2-yl)prop-2-en-1-one]

The remaining lines, values behind:

Row | SMILES | IC50 [nM]
13 | C=CC(=O)N1CC2(CC(n3nc(N4CCC(N(C)C5COC5)CC45CCC5)c(-c4c(Cl)c(C)cc5[nH]nc(N)c45)c3C)C2)C1 (single isomer, unassigned) [Example 115b, 1-(6-(4-(3-amino-5-chloro-6-methyl-1H-indazol-4-yl)-5-methyl-3-(8-(methyl(oxetan-3-yl)amino)-5-azaspiro[3.5]nonan-5-yl)-1H-pyrazol-1-yl)-2-azaspiro[3.3]heptan-2-yl)prop-2-en-1-one] | 246
14 | C=CC(=O)N1CC2(CC(n3nc(N4CCC(N5CC(OC)C5)CC4(C)C)c(-c4c(Cl)c(Cl)cc5[nH]ncc45)c3C)C2)C1 (single isomer, unassigned) [Example 209a, 1-(6-(4-(5,6-dichloro-1H-indazol-4-yl)-3-(4-(3-methoxyazetidin-1-yl)-2,2-dimethylpiperidin-1-yl)-5-methyl-1H-pyrazol-1-yl)-2-azaspiro[3.3]heptan-2-yl)prop-2-en-1-one] | 1100
15 | C=CC(=O)N1CC2(CC(n3nc(N4CC[C@@H](CN5CCN(C6COC6)CC5)CC4(C)C)c(-c4c(Cl)c(Cl)cc5[nH]ncc45)c3C)C2)C1 (single isomer, unassigned) [Example 243a] | 3800
16 | C=CC(=O)N1CC2(CC(n3nc(N4CC[C@@H](CN5CCOCC5)CC4(C)C)c(-c4c(C)c(Cl)cc5[nH]ncc45)c3C)C2)C1 (single isomer, unassigned) [Example 233b] | 20
17 | C=CC(=O)N1CC2(CC(n3nc(N4CC[C@@H](CN5CCOCC5)CC4(C)C)c(-c4c(Cl)c(Cl)cc5[nH]nc(N)c45)c3C)C2)C1 (single isomer, unassigned) [Example 241a] | 8
18 | C=CC(=O)N1CC2(CC(n3nc(N4CCC(N(C)C5COC5)CC45CCC5)c(-c4c(Cl)c(C)cc5[nH]nc(N)c45)c3C)C2)C1 (single isomer, unassigned) [Example 115a, 1-(6-(4-(3-amino-5-chloro-6-methyl-1H-indazol-4-yl)-5-methyl-3-(8-(methyl(oxetan-3-yl)amino)-5-azaspiro[3.5]nonan-5-yl)-1H-pyrazol-1-yl)-2-azaspiro[3.3]heptan-2-yl)prop-2-en-1-one] | 7
19 | C=CC(=O)N1CC2(CC(n3nc(N4CC[C@@H](CN5CCN6C(=O)N(C)CC6C5)CC4(C)C)c(-c4c(Cl)c(Cl)cc5[nH]ncc45)c3C)C2)C1 (single isomer, unassigned) [Example 263a] | > 5000
20 | C=CC(=O)N1CC2(CC(n3nc(N4CCN(C5CCOC5)CC45CCC5)c(-c4c(Cl)c(C)cc5[nH]ncc45)c3C)C2)C1 (single isomer, unassigned) [Example 132b, 1-(6-(4-(5-chloro-6-methyl-1H-indazol-4-yl)-5-methyl-3-(8-(tetrahydrofuran-3-yl)-5,8-diazaspiro[3.5]nonan-5-yl)-1H-pyrazol-1-yl)-2-azaspiro[3.3]heptan-2-yl)prop-2-en-1-one] | 4500
21 | C=CC(=O)N1CC2(CC(n3nc(N4CCN(CC5COCCOC5)CC45CCC5)c(-c4c(Cl)c(C)cc5[nH]ncc45)c3C)C2)C1 (single isomer, unassigned) [Example 185a, 1-(6-(3-(8-((1,4-dioxepan-6-yl)methyl)-5,8-diazaspiro[3.5]nonan-5-yl)-4-(5-chloro-6-methyl-1H-indazol-4-yl)-5-methyl-1H-pyrazol-1-yl)-2-azaspiro[3.3]heptan-2-yl)prop-2-en-1-one] | 4100
22 | C=CC(=O)N1CC2(CC(n3nc(N4CCN(C[C@@H]5COCCO5)C[C@]4(C)CC)c(-c4c(Cl)c(Cl)cc5[nH]ncc45)c3C)C2)C1 (single isomer, unassigned) [Example 89b] | < 5
23 | C=CC(=O)N1CC2(CC(n3nc(N4CCN(CC(C)(C)O)CC45CCC5)c(-c4c(Cl)c(C)cc5[nH]ncc45)c3C)C2)C1 (single isomer, unassigned) [Example 160a, 1-(6-(4-(5-Chloro-6-methyl-1H-indazol-4-yl)-3-(8-(2-hydroxy-2-methylpropyl)-5,8-diazaspiro[3.5]nonan-5-yl)-5-methyl-1H-pyrazol-1-yl)-2-azaspiro[3.3]heptan-2-yl)prop-2-en-1-one] | > 5000
24 | C=CC(=O)N1CC2(CC(n3nc(N4CCN(CC(C)(C)O)CC45CCC5)c(-c4c(Cl)c(C)cc5[nH]ncc45)c3C)C2)C1 (single isomer, unassigned) [Example 160b, 1-(6-(4-(5-Chloro-6-methyl-1H-indazol-4-yl)-3-(8-(2-hydroxy-2-methylpropyl)-5,8-diazaspiro[3.5]nonan-5-yl)-5-methyl-1H-pyrazol-1-yl)-2-azaspiro[3.3]heptan-2-yl)prop-2-en-1-one] | 27
25 | C=CC(=O)N1CC2(CC(n3nc(N4CC[C@@H](CN5CCN(CCO)C(=O)C5)CC4(C)C)c(-c4c(Cl)c(Cl)cc5[nH]ncc45)c3C)C2)C1 (single isomer, unassigned) [Example 251b] | 9
26 | C=CC(=O)N1CC2(CC(n3nc(N4CC[C@@H](CN5CCN6CCOC[C@H]6C5)CC4(C)C)c(-c4c(Cl)c(Cl)cc5[nH]ncc45)c3C)C2)C1 (single isomer, unassigned) [Example 288b] | 10
27 | C=CC(=O)N1CC2(CC(n3nc(N4CCN(C5COC5)C[C@]4(C)CC)c(-c4c(Cl)c(C)cc5[nH]nc(N)c45)c3C)C2)C1 (single isomer, unassigned) [Example 158a] | 6
